Among the data in PubChem BioAssay AID1963844 (Molecular Pharmacology Branch, DTP, NCI, 2024) are IC50 and viability, T/C values, retold here.

Each structure is given as a SMILES string. Where “and” joins values, the source holds several entries; their conditions need not be identical. Identical values can stand only once.

The subject of the assay is 422866-222-R5-J1-PDC complex spheroid viability. Nature of the assay: Anticancer human tumor 422866-222-R5-J1-PDC patient-derived pancreatic adenocarcinoma cell line growth inhibition [POLQ]. Particulars: for viability, T/C: stronger effect = lower value. Here is the method:
Multicellular complex tumor spheroid response to Polymerase (POL) inhibitors (novobiocin, ART-558, RP6685) in combination with a variety of drugs and investigational agents in selected tumor cell lines
The POL inhibitors (novobiocin, ART-558, and RP6685) were evaluated both individually and in combination with standard of care and investigational anticancer small molecules within a complex spheroid model of solid tumors. . Complex spheroids include a stromal component modeled by human endothelial cells (HUVEC) and fibroblasts modeled by human mesenchymal stem cells (MSCs). The concentration ranges selected for each drug and investigational agent were based upon clinically achievable concentrations if the clinical Cmax of the agent was known.
Compounds. The drugs and investigational agents: novobiocin (NSC847541), ART-558 (NSC835418), RP-6685 (NSC848927), peposertib (NSC802822), ceralasertib (NSC780249), elimusertib (NSC800525), camonsertib (NSC841442), AZD-1390 (NSC803789), olaparib (NSC753686), talazoparib (NSC767125), rucaparib (NSC756644), sotorasib (NSC818433), MRTX-1133 (NSC836407), SN-38 (NSC673596), topotecan (NSC609699), epotoside (NSC141540), doxorubicin (NSC123127), gemcitabine (NSC613327), 5-fluorouracil (NSC19893), paclitaxel (NSC125973), vemurafenib (NSC761431), MSA-2 (NSC828583), SN-011 (NSC837082), adavosertib (NSC754352), prexasertib (NSC758257), carboplatin (NSC241240) and oxaliplatin (NSC266046), were obtained from the National Cancer Institute (NCI) Developmental Therapeutics Program Chemical Repository (21). The FDA-approved anticancer drug set is available from the Developmental Therapeutics Program at https://dtp.cancer.gov/organization/dscb/obtaining/. […] The stock solutions were prepared in dimethyl sulfoxide (DMSO, Sigma-Aldrich, St. Louis, MO, cat. D2650), except for the platinum compounds which were prepared in saline (Quality Biological, Gaithersburg, MD, cat. 114-055-101), at 800-fold the tested concentration and stored at -70 degrees C prior to their use. All drugs and investigational agents were tested over a range starting from a high concentration at or near the clinical Cmax and decreasing in half-log increments. If the clinical Cmax for an agent had not been determined, the highest concentration tested was 10 microM, except for SN-38, which was tested at a high concentration of 1 microM.
Cell Culture. All cells were maintained in an incubator at 37 degrees C and 5% CO2 with 95% humidity. The PDC lines were cultured according to standard operating procedures established by the NCI PDMR (https://pdmr.cancer.gov). Table 3 of the manuscript, lists the cell lines along with the number of the three cell types plated to form the mct-spheroids and media for tumor cell growth. After thawing, all PDC lines, except 997537-175-T-J1-PDC and 415267-285-R-J2-PDC, were cultured in Matrigel-coated flasks prepared with a working solution of 1X Ham's F-12 nutrient mix, without supplementation (Thermo Fisher Scientific, cat. 11765054), 100 U/mL penicillin-streptomycin (Thermo Fisher Scientific, cat. 15140122), and 2.5% Matrigel (Corning Inc., Corning, NY, cat. 354248) for the first three passages. The two PDC lines 997537-175-T-J1-PDC and 415267-285-R-J2-PDC were cultured on uncoated flasks. The 857933-349-R-J2-PDC line was cultured in 6C/Colon 1B media containing advanced DMEM/F-12 (Thermo Fisher Scientific, cat. 12634028), 10 mM HEPES (Thermo Fisher Scientific, cat. 15630080), 1X GlutaMAX supplement (Thermo Fisher Scientific, cat. 35050061), 0.1 mg/mL primocin (InvivoGen, San Diego, CA, cat. ant-pm-2), 10% defined fetal bovine serum, heat inactivated (HyClone Laboratories Inc., Logan, UT, cat. SH30070.03HI), 50% L-WRN conditioned media (ATCC, cat. CRL-3276), 1.25 mM N-Acetyl-L-cysteine (Sigma-Aldrich, cat. A9165), 10 mM nicotinamide (Sigma-Aldrich, cat. N0636), 1X B-27 supplement (Thermo Fisher Scientific, cat. 17504044), 1X N-2 supplement (Thermo Fisher Scientific, cat. […]

Setting [1] is: curve of first compound, second compound 0.0316 µM.
The mark [2] stands for this setting: curve of first compound, second compound 0.1 µM.
[3] abbreviates: curve of first compound, second compound 0.316 µM.
[4] abbreviates: curve of first compound, second compound 1 µM.
Where [5] appears, read: curve of first compound, second compound 3.16 µM.
Setting [6] is: curve of first compound, second compound 10 µM.
Setting [7] is: second compound 0.0316 µM, first compound 0.0316 µM.
Where [8] appears, read: second compound 0.0316 µM, first compound 0.1 µM.
[9] abbreviates: second compound 0.0316 µM, first compound 0.316 µM.
Where [10] appears, read: second compound 0.0316 µM, first compound 1 µM.
[11] abbreviates: second compound 0.0316 µM, first compound 3.16 µM.
Where [12] appears, read: second compound 0.0316 µM, first compound 10 µM.
Where [13] appears, read: second compound 0.1 µM, first compound 0.0316 µM.
[14] abbreviates: second compound 0.1 µM, first compound 0.1 µM.
The mark [15] stands for this setting: second compound 0.1 µM, first compound 0.316 µM.
[16] abbreviates: second compound 0.1 µM, first compound 1 µM.
Where [17] appears, read: second compound 0.1 µM, first compound 3.16 µM.
[18] abbreviates: second compound 0.1 µM, first compound 10 µM.
[19] abbreviates: second compound 0.316 µM, first compound 0.0316 µM.
Setting [20] is: second compound 0.316 µM, first compound 0.1 µM.
Where [21] appears, read: second compound 0.316 µM, first compound 0.316 µM.
[22] abbreviates: second compound 0.316 µM, first compound 1 µM.
Where [23] appears, read: second compound 0.316 µM, first compound 3.16 µM.
[24] abbreviates: second compound 0.316 µM, first compound 10 µM.
Setting [25] is: second compound 1 µM, first compound 0.0316 µM.
[26] abbreviates: second compound 1 µM, first compound 0.1 µM.
Where [27] appears, read: second compound 1 µM, first compound 0.316 µM.
Where [28] appears, read: second compound 1 µM, first compound 1 µM.
The mark [29] stands for this setting: second compound 1 µM, first compound 3.16 µM.
Where [30] appears, read: second compound 1 µM, first compound 10 µM.
[31] abbreviates: second compound 3.16 µM, first compound 0.0316 µM.
[32] abbreviates: second compound 3.16 µM, first compound 0.1 µM.
[33] abbreviates: second compound 3.16 µM, first compound 0.316 µM.
[34] abbreviates: second compound 3.16 µM, first compound 1 µM.
Where [35] appears, read: second compound 3.16 µM, first compound 3.16 µM.
Where [36] appears, read: second compound 3.16 µM, first compound 10 µM.
The mark [37] stands for this setting: second compound 10 µM, first compound 0.0316 µM.
Setting [38] is: second compound 10 µM, first compound 0.1 µM.
Where [39] appears, read: second compound 10 µM, first compound 0.316 µM.
[40] abbreviates: second compound 10 µM, first compound 1 µM.
Where [41] appears, read: second compound 10 µM, first compound 3.16 µM.
The mark [42] stands for this setting: second compound 10 µM, first compound 10 µM.
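Also: spheroids exposed to compounds for one week before readout.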
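For viability, T/C in this document: percent of DMSO vehicle wells luminescence so 100% = untreated viability.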

A word on the IC50: it is the midpoint of a concentration-inhibition curve. As usually defined, the viability, T/C is the result in the treated group divided by that in the control group, in per cent. For `CCCS(=O)(=O)Nc1ccc(F)c(C(=O)c2c[nH]c3ncc(-c4ccc(Cl)cc4)cc23)c1F` + Cc1cccc(N(C)C(=O)C2C(O)CCN2c2nc(C)cc(C(F)(F)F)c2C#N)c1, the IC50 under setting [1] was > 10 µM; the IC50 under setting [2] is > 10 µM; the IC50 under setting [3] is > 10 µM; the IC50 under setting [4] is > 10 µM; the IC50 under setting [5] is > 10 µM; the half-maximal inhibitory concentration (IC50) under setting [6] was > 10 µM. Further, the viability, T/C under setting [7] was 92.3%; the viability, T/C under setting [8] was 115%; the viability, T/C under setting [9] amounted to 122%; the viability, T/C under setting [10] was 156%; the viability, T/C under setting [11] is 214%; the viability, T/C under setting [12] came out at 102%. For the same compound, the viability, T/C by setting is: under setting [13], 93%; under setting [14], 99.1%; under setting [15], 111%; under setting [16], 138%; under setting [17], 200%; under setting [18], 102%. For the same compound, the viability, T/C reads like this: under setting [19], 92.6%; under setting [20], 105%; under setting [21], 135%; under setting [22], 164%; under setting [23], 143%; under setting [24], 94.9%. The viability, T/C was 98.5% under setting [25]; 104% under setting [26]; 124% under setting [27]; 145% under setting [28]; 192% under setting [29]; 94.8% under setting [30]. Moreover, the viability, T/C stood at 99.4% under setting [31]; 105% under setting [32]; 138% under setting [33]; 163% under setting [34]; 205% under setting [35]; 107% under setting [36]. Further, the viability, T/C reads like this: under setting [37], 84.4%; under setting [38], 97%; under setting [39], 124%; under setting [40], 149%; under setting [41], 188%; under setting [42], 79.2%.

Consider `CNCc1ccc(-c2[nH]c3cc(F)cc4c3c2CCNC4=O)cc1`, for which the viability, T/C runs as follows: (compound 0.0316 µM) 88% and 95% and 99.8%; (compound 0.1 µM) 89.3% and 83.7% and 99.7%; (compound 1 µM) 90.7% and 102% and 101%; (compound 3.16 µM) 77.7% and 90.4% and 86.5%; (compound 10 µM) 94.5% and 76.6% and 86.3%. Besides, the IC50 (curve of compound) was > 10 µM.

With `C=CC(=O)N1CCN(c2nc(=O)n(-c3c(C)ccnc3C(C)C)c3nc(-c4c(O)cccc4F)c(F)cc23)C(C)C1` (stereo not drawn), the viability, T/C reads like this: (compound 0.0316 µM) 30.6% and 30.5% and 34.5%; (compound 0.1 µM) 23.7% and 28.7% and 31.4%; (compound 0.316 µM) 24.4% and 29.1% and 24.3%; (compound 1 µM) 23.3% and 29.6% and 26.2%; (compound 3.16 µM) 25.1% and 22.9% and 26.6%; (compound 10 µM) 28.1% and 23.5% and 24.2%. Also, the IC50 (curve of compound) is < 0.0316 µM.

Take `CC1COCCN1c1cc(-c2ccnn2C)c2ccnc(-c3ccn[nH]3)c2n1` (stereo not drawn) + Nc1ccc(C#CCN(C(=O)Cc2ncc(C(F)(F)F)cc2C(F)(F)F)c2ccc(F)cc2)nn1: the IC50 was > 10 µM under setting [1]; > 10 µM under setting [2]; > 10 µM under setting [3]; 10 µM under setting [4]; 0.232 µM under setting [5]; > 10 µM under setting [6]. Besides, the viability, T/C amounted to 110% under setting [7]; 52.5% under setting [8]; 35.8% under setting [9]; 31.4% under setting [10]; 72.4% under setting [11]; 67.8% under setting [12]. The viability, T/C was found to be 112% under setting [13]; 49.3% under setting [14]; 44.4% under setting [15]; 37.4% under setting [16]; 45% under setting [17]; 81.1% under setting [18]. For the same compound, the viability, T/C was 90.7% under setting [19]; 45.4% under setting [20]; 33.7% under setting [21]; 34% under setting [22]; 68.2% under setting [23]; 83.4% under setting [24]. Further, the viability, T/C was found to be 87% under setting [25]; 62.4% under setting [26]; 38.5% under setting [27]; 29.9% under setting [28]; 61.5% under setting [29]; 73% under setting [30]. The viability, T/C runs as follows: under setting [31], 96.6%; under setting [32], 51.6%; under setting [33], 32.6%; under setting [34], 29.8%; under setting [35], 61.5%; under setting [36], 74.2%. For the same compound, the viability, T/C runs as follows: under setting [37], 102%; under setting [38], 41.1%; under setting [39], 39.6%; under setting [40], 36.2%; under setting [41], 79.8%; under setting [42], 74.8%.

`C#Cc1c(F)ccc2cc(O)cc(-c3ncc4c(N5CC6CCC(C5)N6)nc(OCC56CCCN5CC(F)C6)nc4c3F)c12` (stereo not drawn): the viability, T/C reads like this: (compound 0.0316 µM) 93% and 91.1% and 102%; (compound 0.1 µM) 80.5% and 89.6% and 83.2%; (compound 0.316 µM) 60.1% and 59.7% and 68.7%; (compound 1 µM) 44% and 50.6% and 51.8%; (compound 3.16 µM) 33.9% and 34.4% and 34.3%; (compound 10 µM) 26.9% and 24.2% and 26%. In addition, the IC50 (curve of compound) is 0.666 µM and 0.869 µM and 1.06 µM.

As for `O=C(c1cc(Cc2n[nH]c(=O)c3ccccc23)ccc1F)N1CCN(C(=O)C2CC2)CC1`, the viability, T/C runs as follows: (compound 0.0316 µM) 98.1% and 101% and 83.2%; (compound 0.1 µM) 97.3% and 102% and 84.5%; (compound 1 µM) 99.5% and 102% and 91.3%. Further, the IC50 (curve of compound) is > 10 µM.
